Values of other authors as cited in US9265724B2, “Oral dosage form of tetrahydrocannabinol and a method of avoiding and/or suppressing hepatic first pass metabolism via targeted chylomicron/lipoprotein delivery” (priority 2005, dated 2016).

Experiments:
[1] = low aqueous solubility and high permeability

## CCCCCc1cc(O)c2c(c1)OC(C)(C)[C@@H]1CCC(C)=C[C@@H]21 [Δ^9-THC, Δ^9-tetrahydrocannabinol]
[1]
  biopharmaceutical classification system (BCS) class: Class II
After a single oral dose
  absorbed: 90-95%
After administration
  continuation of appetite stimulant effect: ≥ 24 h
After oral administration
  duration of action for psychoactive effects: 4 to 6 h
  peak effect: 2 to 4 h
oral
  administered dose that reaches systemic circulation: 10-20%
Oral dosing of 20 mg in a sesame oil formulation
  maximal plasma levels: around 10 ng/ml
